According to patent publication US8008298B2, “Pyrrolopyrazine kinase inhibitors” (Roche Palo Alto, priority 2008, dated 2011):

## CC(C)(C)C(=O)c1c[nH]c2ncc(-c3cc(OCCS(C)(=O)=O)cc(N4CCCC4)c3)nc12 [Example 267, 1-{2-[3-(2-Methanesulfonyl-ethoxy)-5-pyrrolidin-1-yl-phenyl]-5H-pyrrolo[2,3-b]pyrazin-7-yl}-2,2-dimethyl-propan-1-one]
  melting point: 230 to 232 °C

## COCOc1cc(-c2cnc3[nH]cc(C(=O)C(C)(C)C)c3n2)cc(N2CCCC2)c1 [Example I-151, 1-[2-(3-Methoxymethoxy-5-pyrrolidin-1-yl-phenyl)-5H-pyrrolo[2,3-b]pyrazin-7-yl]-2,2-dimethyl-propan-1-one]
  melting point: 229 to 230 °C

## COc1cc(-c2cnc3[nH]cc(C(=O)Cc4ccccc4)c3n2)cc(OC)c1OC [Example 64, 2-phenyl-1-[2-(3,4,5-trimethoxy-phenyl]-5H-pyrrolo[2,3-b]pyrazin-7-yl]-ethanone]
  melting point: 226 to 227 °C

## COc1cc(-c2cnc3[nH]cc(C(=O)C(=O)N(C)C)c3n2)cc(OC)c1OC [Example 74, N,N-Dimethyl-2-oxo-2-[2-(3,4,5-trimethoxy-phenyl)-5H-pyrrolo[2,3-b]pyrazin-7-yl]-acetamide]
  melting point: 227 to 228 °C

## COc1cc(-c2cnc3[nH]cc(C(=O)O)c3n2)cc(OC)c1OC [Example I-490, 2-(3,4,5-Trimethoxy-phenyl)-5H-pyrrolo[2,3-b]pyrazine-7-carboxylic acid]
  melting point: 237.8 to 238.4 °C

## CC(C)(C)C(=O)c1c[nH]c2ncc(-c3ccc(F)c(Cl)c3)nc12 [Example I-341, 1-[2-(3-Chloro-4-fluoro-phenyl)-5H-pyrrolo[2,3-b]pyrazin-7-yl]-2,2-dimethyl-propan-1-one]
  melting point: 233 to 234 °C

## COc1cc(-c2cnc3[nH]cc(C(=O)C(C)C)c3n2)cc(OC)c1OC [Example 68, 2-Methyl-1-[2-(3,4,5-trimethoxy-phenyl)-5H-pyrrolo[2,3-b]pyrazin-7-yl]-propan-1-one]
  melting point: 189 to 190 °C

## CC1(C(=O)c2c[nH]c3ncc(-c4cccc(N5CCCC5)c4)nc23)CCCC1 [Example 167, (1-Methyl-cyclopentyl)-[2-(3-pyrrolidin-1-yl-phenyl)-5H-pyrrolo[2,3-b]pyrazin-7-yl]-methanone]
  melting point: 242 to 243 °C

## COc1cc(-c2cnc3[nH]cc(C(=O)N4CCCC4)c3n2)cc(OC)c1OC [Example 240, Pyrrolidin-1-yl-[2-(3,4,5-trimethoxy-phenyl)-5H-pyrrolo[2,3-b]pyrazin-7-yl]-methanone]
  melting point: 210 to 212 °C

## CC(=O)Nc1cccc(-c2cnc3[nH]cc(C(=O)C(C)(C)C)c3n2)c1 [Example 228, N-{3-[7-(2,2-Dimethyl-propionyl)-5H-pyrrolo[2,3-b]pyrazin-2-yl]-phenyl}-acetamide]
  melting point: 249 to 250 °C

## CC(C)(C)C(=O)c1c[nH]c2ncc(-c3ccc(OCCN4CCOCC4)cc3)nc12 [Example I-40, 2,2-Dimethyl-1-{2-[4-(2-morpholin-4-yl-ethoxy)-phenyl]-5H-pyrrolo[2,3-b]pyrazin-7-yl}-propan-1-one]
  melting point: 198.4 to 202.7 °C

## CCOc1cccc(-c2cnc3[nH]cc(C(=O)C(C)(C)C)c3n2)c1 [Example 136, 1-[2-(3-Ethoxy-phenyl)-5H-pyrrolo[2,3-b]pyrazin-7-yl]-2,2-dimethyl-propan-1-one]
  melting point: 195 to 196 °C

## CC(C)(C)C(=O)c1c[nH]c2ncc(-c3cccc(O)c3)nc12 [Example I-141, 1-[2-(3-Hydroxy-phenyl)-5H-pyrrolo[2,3-b]pyrazin-7-yl]-2,2-dimethyl-propan-1-one]
  melting point: 267 to 268 °C

## CC1(C(=O)c2c[nH]c3ncc(-c4ccc(N5CCOCC5)cc4)nc23)CCCCC1 [Example 172, (1-Methyl-cyclohexyl)-[2-(4-morpholin-4-yl-phenyl)-5H-pyrrolo[2,3-b]pyrazin-7-yl]-methanone]
  melting point: 233 to 235 °C

## COC(=O)C1(C)CCN(c2cccc(-c3cnc4[nH]cc(C(=O)C(C)(C)C)c4n3)c2)C1 (centres unmarked) [Example 209, 1-{3-[7-(2,2-Dimethyl-propionyl)-5H-pyrrolo[2,3-b]pyrazin-2-yl]-phenyl}-3-methyl-pyrrolidine-3-carboxylic acid methyl ester]
  melting point: 198 to 200 °C

## Cc1nnc(-c2cccc(-c3cnc4[nH]cc(C(=O)C5(C)CCCCC5)c4n3)c2)o1 [Example 155, (1-Methyl-cyclohexyl)-{2-[3-(5-methyl-[1,3,4]oxadiazol-2-yl)-phenyl]-5H-pyrrolo[2,3-b]pyrazin-7-yl}-methanone]
  melting point: 234 to 236 °C

## COc1cccc(-c2cnc3[nH]cc(C(=O)C4(C)CCCCC4)c3n2)c1 [Example 157, [2-(3-Methoxy-phenyl)-5H-pyrrolo[2,3-b]pyrazin-7-yl]-(1-methyl-cyclohexyl)-methanone]
  melting point: 173 to 175 °C

## COc1cc(-c2cnc3[nH]cc(C(=O)C(C)(C)CO)c3n2)cc(OC)c1OC [Example 165, 3-hydroxy-2,2-dimethyl-1-[2-(3,4,5-trimethoxy-phenyl)-5H-pyrrolo[2,3-b]pyrazin-7-yl]-propan-1-one]
  melting point: 227 to 229 °C

## COc1cc(-c2cnc3[nH]cc(C(=O)C4(C)CCCC(C)C4)c3n2)cc(OC)c1OC (centres unmarked) [Example 169, (1,3-Dimethyl-cyclohexyl)-[2-(3,4,5-trimethoxy-phenyl)-5H-pyrrolo[2,3-b]pyrazin-7-yl]-methanone]
  melting point: 229 to 231 °C

## CNS(=O)(=O)c1ccc(-c2cnc3[nH]cc(C(=O)C(C)(C)C)c3n2)cc1 [Example 142, 4-[7-(2,2-Dimethyl-propionyl)-5H-pyrrolo[2,3-b]pyrazin-2-yl]-N-methyl-benzenesulfonamide]
  melting point: 278 to 280 °C

## CC(C)(C)OC(=O)N1CCN(c2cccc(-c3cnc4[nH]cc(C(=O)C5(C)CCCCC5)c4n3)c2)CC1 [Example 175, 4-{3-[7-(1-Methyl-cyclohexanecarbonyl)-5H-pyrrolo[2,3-b]pyrazin-2-yl]-phenyl}-piperazine-1-carboxylic acid tert-butyl ester]
  melting point: 212 to 213 °C

## CC(C)(C)OC(=O)N1CCN(c2cccc(-c3cnc4[nH]cc(C(=O)C(C)(C)C)c4n3)c2)CC1 [Example I-44, 4-{3-[7-(2,2-Dimethyl-propionyl)-5H-pyrrolo[2,3-b]pyrazin-2-yl]-phenyl}-piperazine-1-carboxylic acid tert-butyl ester]
  melting point: 215.2 to 215.8 °C

## COc1cc(-c2cnc3[nH]cc(C(=O)N4CCC(C)(C)C4)c3n2)cc(OC)c1OC [Example I-395, (3,3-Dimethyl-pyrrolidin-1-yl)-[2-(3,4,5-trimethoxy-phenyl)-5H-pyrrolo[2,3-b]pyrazin-7-yl]-methanone]
  melting point: 228 to 230 °C

## COCC1CCCN1c1cccc(-c2cnc3[nH]cc(C(=O)NC(C)C)c3n2)c1 (centres unmarked) [Example I-230, 2-[3-(2-Methoxymethyl-pyrrolidin-1-yl)-phenyl]-5H-pyrrolo[2,3-b]pyrazine-7-carboxylic acid isopropylamide]
  melting point: 187 to 190 °C

## CC1(C(=O)c2c[nH]c3ncc(-c4ccc(OCCN5CCCCC5)cc4)nc23)CCCCC1 [Example I-368, (1-Methyl-cyclohexyl)-{2-[4-(2-piperidin-1-yl-ethoxy)-phenyl]-5H-pyrrolo[2,3-b]pyrazin-7-yl}-methanone]
  melting point: 180 to 182 °C

## CN(C)C1CCN(c2cccc(-c3cnc4[nH]cc(C(=O)C(C)(C)C)c4n3)c2)C1 (centres unmarked) [Example 202, 1-{2-[3-(3-Dimethylamino-pyrrolidin-1-yl)-phenyl]-5H-pyrrolo[2,3-b]pyrazin-7-yl}-2,2-dimethyl-propan-1-one]
  melting point: 204 to 206 °C

## O=C(c1c[nH]c2ncc(Br)nc12)C12CC3CC(CC(C3)C1)C2 [Example 161, Adamantan-1-yl-(2-bromo-5H-pyrrolo[2,3-b]pyrazin-7-yl)-methanone]
  melting point: 279 to 280 °C

## CC1(C(=O)c2c[nH]c3ncc(-c4cccc(N5CCN(S(C)(=O)=O)CC5)c4)nc23)CCCCC1 [Example 181, {2-[3-(4-Methanesulfonyl-piperazin-1-yl)-phenyl]-5H-pyrrolo[2,3-b]pyrazin-7-yl}-(1-methyl-cyclohexyl)-methanone]
  melting point: 230 to 231 °C

## CC1(C(=O)c2c[nH]c3ncc(-c4ccc(N5CCNCC5)cc4)nc23)CCCCC1 [Example 185, (1-Methyl-cyclohexyl)-[2-(4-piperazin-1-yl-phenyl)-5H-pyrrolo[2,3-b]pyrazin-7-yl]-methanone]
  melting point: 214 to 216 °C

## COc1cc(-c2cnc3[nH]cc(C(=O)C(C)(C)C)c3n2)cc(OC)c1OC [Example 67, 2,2-Dimethyl-1-[2-(3,4,5-trimethoxy-phenyl)-5H-pyrrolo[2,3-b]pyrazin-7-yl]-propan-1-one]
  melting point: 240 to 241 °C

## CC(=O)Nc1ccc(S(=O)(=O)Nc2cc(-c3cnc4[nH]cc(C(=O)C(C)(C)C)c4n3)ccc2C)cc1 [Example I-415, N-(4-{5-[7-(2,2-Dimethyl-propionyl)-5H-pyrrolo[2,3-b]pyrazin-2-yl]-2-methyl-phenylsulfamoyl}-phenyl)-acetamide]
  melting point: 274 to 276 °C

## COc1cc(-c2cnc3[nH]cc(C(=O)NC4CCCOC4)c3n2)cc(OC)c1OC (centres unmarked) [Example 23, 2-(3,4,5-Trimethoxy-phenyl)-5H-pyrrolo[2,3-b]pyrazine-7-carboxylic acid (tetrahydro-pyran-3-yl)-amide]
  melting point: 191 to 192 °C

## CC(=O)N1CCN(c2ccc(-c3cnc4[nH]cc(C(=O)C5(C)CCCCC5)c4n3)cc2)CC1 [Example 186, 1-(4-{4-[7-(1-Methyl-cyclohexanecarbonyl)-5H-pyrrolo[2,3-b]pyrazin-2-yl]-phenyl}-piperazin-1-yl)-ethanone]
  melting point: 278 to 284.9 °C

## COc1ccc(-c2cnc3[nH]cc(C(=O)NC4CCN(C(C)=O)C4)c3n2)cc1OC (centres unmarked) [Example 26, 2-(3,4-Dimethoxy-phenyl)-5H-pyrrolo[2,3-b]pyrazine-7-carboxylic acid (1-acetyl-pyrrolidin-3-yl)-amide]
  melting point: 211 to 212 °C

## COc1cccc(-c2cnc3[nH]cc(C(=O)C(C)(C)C)c3n2)c1 [Example I-134, 1-[2-(3-Methoxy-phenyl)-5H-pyrrolo[2,3-b]pyrazin-7-yl]-2,2-dimethyl-propan-1-one]
  melting point: 197.4 to 198.8 °C
